Measurements from ChEMBL document CHEMBL2074564, “P-glycoprotein interactions of nefazodone and trazodone in cell culture” (J Clin Pharmacol, 2001).

Experiments:
Format in all cases: functional, cell-based
[1] = biological target: T1, ATP-dependent translocase ABCB1 (Homo sapiens, UniProt P08183); experiment: TP_TRANSPORTER: Western blot, LS180V cell
[2] = biological target: T1, ATP-dependent translocase ABCB1; experiment: TP_TRANSPORTER: inhibition of Rhodamine 123 transepithelial transport (basal to apical) (R123: 5 uM) in Caco-2 cells
[3] = biological target: T1, ATP-dependent translocase ABCB1; experiment: TP_TRANSPORTER: transepithelial transport (basal to apical) in Caco-2 cells

T1 sequence (P08183 whole entry): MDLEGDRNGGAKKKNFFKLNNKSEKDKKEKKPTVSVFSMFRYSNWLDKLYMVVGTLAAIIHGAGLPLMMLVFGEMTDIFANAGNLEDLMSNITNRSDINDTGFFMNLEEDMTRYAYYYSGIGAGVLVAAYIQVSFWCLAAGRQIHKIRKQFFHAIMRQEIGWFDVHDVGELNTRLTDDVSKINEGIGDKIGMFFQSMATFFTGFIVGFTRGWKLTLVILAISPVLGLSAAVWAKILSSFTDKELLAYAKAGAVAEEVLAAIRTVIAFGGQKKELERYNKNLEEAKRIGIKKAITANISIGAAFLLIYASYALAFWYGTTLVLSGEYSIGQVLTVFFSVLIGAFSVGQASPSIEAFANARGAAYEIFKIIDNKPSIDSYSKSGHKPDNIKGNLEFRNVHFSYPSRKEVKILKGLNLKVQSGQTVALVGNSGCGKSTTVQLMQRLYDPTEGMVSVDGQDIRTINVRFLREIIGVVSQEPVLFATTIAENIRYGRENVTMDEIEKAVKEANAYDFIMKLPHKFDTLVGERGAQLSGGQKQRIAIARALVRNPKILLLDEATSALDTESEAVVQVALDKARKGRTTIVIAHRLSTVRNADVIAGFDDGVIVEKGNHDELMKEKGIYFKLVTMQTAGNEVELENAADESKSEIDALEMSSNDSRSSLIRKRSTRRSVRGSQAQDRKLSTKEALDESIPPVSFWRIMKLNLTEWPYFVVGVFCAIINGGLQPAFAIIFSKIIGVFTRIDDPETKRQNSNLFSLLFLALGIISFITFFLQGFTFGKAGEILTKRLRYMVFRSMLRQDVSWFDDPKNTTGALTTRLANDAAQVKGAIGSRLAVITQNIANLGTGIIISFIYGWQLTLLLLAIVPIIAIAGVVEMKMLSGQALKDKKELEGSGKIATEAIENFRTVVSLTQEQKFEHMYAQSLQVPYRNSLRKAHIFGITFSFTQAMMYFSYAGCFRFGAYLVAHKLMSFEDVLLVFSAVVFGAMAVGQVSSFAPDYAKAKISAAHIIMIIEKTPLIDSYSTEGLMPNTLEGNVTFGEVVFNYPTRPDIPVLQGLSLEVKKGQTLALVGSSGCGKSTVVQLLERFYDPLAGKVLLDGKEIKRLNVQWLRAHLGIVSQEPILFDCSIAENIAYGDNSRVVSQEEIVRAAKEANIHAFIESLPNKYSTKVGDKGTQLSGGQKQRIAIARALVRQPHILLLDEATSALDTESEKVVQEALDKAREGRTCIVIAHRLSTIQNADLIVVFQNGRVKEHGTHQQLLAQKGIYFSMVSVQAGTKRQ

Activity [1]	IC50 [2] [µM]	Activity [3]	Structure (SMILES)
inducer [+]	4.7	is not a substrate [-]	CCc1nn(CCCN2CCN(c3cccc(Cl)c3)CC2)c(=O)n1CCOc1ccccc1 [NEFAZODONE]
inducer [+]	–	–	O=c1n(CCCN2CCN(c3cccc(Cl)c3)CC2)nc2ccccn12 [TRAZODONE]
